Assay results as given in US4120947A, “Xanthine compounds and method of treating bronchospastic and allergic diseases” (priority 1976, dated 1978).
Read-outs that look alike come from different tables or passages of the source.

Legend:
[1] = tested on: histamine-induced bronchoconstriction in the guinea pig; assay: BD: bronchodilator activity against histamine-induced bronchoconstriction in the guinea pig; conditions: for inhibition in vivo at 150 mg/kg / inhibition in vivo at 100 mg/kg / inhibition in vivo at 10 mg/kg / inhibition in vivo at 20 mg/kg / inhibition in vivo at 40 mg/kg / inhibition in vivo at 15 mg/kg / inhibition in vivo at 80 mg/kg: Cavia porcellus, po, read-out: BD (guinea pig), % protection; for lethal / bronchodilator effectiveness, in words / onset and duration of action, in words: guinea pig; for bronchodilator effectiveness, in words / onset and duration of action, in words: comparison with corresponding compound
Source text: BD Bronchodilator activity evaluated against histamine-induced bronchoconstriction in the guinea pig, and expressed as % protection at the stated time interval (in minutes and hours) post-drug against histamine agonist. Doses are expressed in milligrams per kilogram of body weight (mpk) per os (po) or intraperitoneally (ip).
A modification of the method of Siegmund. O.H., et al., J. Pharmacol. and Exp. Therap. 90:254-9, 1947, is used. Healthy guinea pigs weighing from 250 to 300 grams are placed four at a time and separated by wiring screening in an 11 liter plastic chamber, at the time of peak activity following drug administration. The challenge consists of histamine diphosphate (1% solution) aerosolized in a de Vilbiss -40 nebulizer at 200 mm Hg. Times for prostration are recorded.
Per cent protection is calculated as follows: [formula] wherein the times are measured in seconds.
In interpreting the BD data it should be noted that a dose giving less than 40-50% protection is not considered useful. Differences in percent protection of less than 10% are probably not significant.

[2] = tested on: antigen-induced bronchconstriction in rats sensitized with N. brasliensis; assay: AA: antiallergy (anti-anaphylactic) activity against antigen-induced bronchoconstriction in sensitized rats
Source text: The animals are subdivided into control and test groups. Test animals receive a drug either orally, intraperitoneally or intravenously and are challenged with intravenous antigen at fixed time intervals after dosing. Antigen-induced increases in tracheal pressure are monitored and reflect the extent of bronchoconstriction.

[3] = tested on: guinea pig tracheal chain preparation; assay: SP: spasmolytic activity in vitro, guinea pig tracheal chain preparation; conditions: Cavia porcellus, read-out: SP in vitro C, molar concentration required to produce maximum relaxation
Source text: SP Spasmolytic activity evaluated in vitro using guinea pig tracheal chain preparation, and expressed as the molar (M) concentration required to produce maximum relaxation. The method used in that of Castillo and de Beer, J. Pharmac. Expt. Therap. 90, 104, 1947.

[4] = LD50 mouse; type: in vivo; conditions: in vivo, po
Method: (§1) The LD50 was determined in three species, the mouse (male, 18-25 g), the albino rat (female, 150-200 g) and the albino guinea pig (male 180-280 g) by oral administration and in the albino rat by intraperitoneal administration. The animals are fasted overnight prior to testing. Six groups of ten animals are used; five groups are dosed with the test substance, the sixth group serves as a control and receives the drug vehicle at the highest test concentration. The compounds were administered in a 0.5% gum tragacanth solution in distilled water using a constant logarithmic increment in dose. Dose volume ranged from […].
(§2) The animals were housed five per cage (rat and guinea pig) or ten per cage (mouse) with free access to food and water. The number of dead animals was recorded daily for five consecutive days. The total mortality per group of ten for each dose level was recorded and LD50 with Confidence Limits calculated according to the method described by Weil, C.

[5] = in vivo
Method: as §1, §2

[6] = tested on: histamine-induced bronchoconstriction in the dog; assay: CP: cardiopulmonary activity against histamine-induced bronchoconstriction in the dog; type: in vivo; conditions: histamine challenge
Source text: Pretreatment with bronchodilator drugs aims to block the bronchospastic response to histamine. Each dog serves as its own control.

[7] = tested on: passive cutaneous anaphylaxis in the rat; assay: PCA: passive cutaneous anaphylaxis in the rat; type: in vivo
Method: PCA Antianaphylactic activity against passive cutaneous anaphylaxis in the rat, expressed as % protection against antigen-induced wheal formation.
The method used is that of Ogilvie, B. M., Immunology 12, 113-131 (1967). Reaginic […] antibodies develope in the rat following subcutaneous injection of Nippostrongylus brasiliensis larvae. Antisera, collected 28 days later are injected subcutaneously into new rats.

[8] = Rattus norvegicus, ip, 1 h, read-out: AA (rat), % protection

SMILES: Cc1nc2c([nH]1)c(=O)n(C)c(=O)n2C [Compound 4296, 1,3,8-trimethylxanthine]
- inhibition in vivo at 150 mg/kg ([1]; 0.5 h): 68%
- inhibition in vivo at 100 mg/kg ([1]; 1 h): 53%
- inhibition in vivo at 150 mg/kg ([1]; 1 h): 80%
- inhibition in vivo at 150 mg/kg ([1]; 2 h): 71%
- inhibition in vivo at 100 mg/kg ([1]; 4 h): 45%
- inhibition in vivo at 150 mg/kg ([1]; 4 h): 79%
- inhibition in vivo at 100 mg/kg ([1]; 6 h): 43%
- inhibition in vivo at 150 mg/kg ([1]; 6 h): 86%
- inhibition in vivo at 100 mg/kg ([1]; 10 h): 23%
- inhibition in vivo at 150 mg/kg ([1]; 10 h): 85%
- inhibition in vivo at 75 mg/kg [2, 8]: 49%

SMILES: CCCCCn1c(=O)n(C)c(=O)c2c1nc(C)n2C(=O)OC [Compound 4507, 1,8-dimethyl-3-n-pentylxanthine-7-carboxylic acid, methyl ester]
- inhibition in vivo at 10 mg/kg ([1]; 1 h): 26%
- inhibition in vivo at 20 mg/kg ([1]; 1 h): 52%
- inhibition in vivo at 40 mg/kg ([1]; 1 h): 100%
- inhibition in vivo at 40 mg/kg ([1]; 6 h): 63%
- lethal ([1]; 80 mpK po): 2/2

SMILES: CCc1nc2c(c(=O)n(C)c(=O)n2CC(C)CC)n1C(=O)OC (racemic) [Compound 4491, DL-1-methyl-3-(2-methyl-1-butyl)-8-ethyl-xanthine-7-carboxylic acid, methyl ester]
- inhibition in vivo at 10 mg/kg ([1]; 1 h): 25%
- inhibition in vivo at 40 mg/kg ([1]; 1 h): 52%

SMILES: CC(C)Cn1c(=O)n(C)c(=O)c2[nH]cnc21 [Compound 4258, 1-methyl-3-(isobutyl)xanthine]
- inhibition in vivo at 15 mg/kg ([1]; 0.5 h): 45%
- inhibition in vivo at 15 mg/kg ([1]; 1 h): 75%
- lethal ([1]; 25 mpK po): 2/4
- AA (rat), toxicity ([2]; 2.0 mpK ip, 1h): tox
- inhibition in vivo at […] [2, 8]: 79%

SMILES: COC(=O)n1cnc2c1c(=O)n(C)c(=O)n2C [Compound 4260, 1,3-dimethylxanthine-7-carboxylic ester, methyl ester]
- inhibition in vivo at 80 mg/kg ([1]; 0.5 h): 99%
- inhibition in vivo at 80 mg/kg ([1]; 1 h): 100%
- inhibition in vivo at 80 mg/kg ([1]; 2 h): 86%
- inhibition in vivo at 80 mg/kg ([1]; 4 h): 95%
- inhibition in vivo at 80 mg/kg ([1]; 6 h): 0%
- bronchodilator effectiveness, in words [1]: clearly superior to theophylline at the same dose (80 mpK)
- onset and duration of action, in words [1]: more potent, with both faster onset and longer duration of action
- bronchodilator effectiveness, in words ([1]; listed as 1,3-dimethyl-7-carbomethoxyxanthine): significantly more effective than theophylline itself
- EC (maximum relaxation) [3]: 50000 µM
- inhibition in vivo at 75 mg/kg [2, 8]: 82%

SMILES: CCCOC(=O)n1c(C)nc2c1c(=O)n(C)c(=O)n2CC(C)CC (racemic) [Compound 4488, DL-1,8-dimethyl-3-(2-methyl-1-butyl)xanthine-7-carboxylic acid, n-propyl ester]
- inhibition in vivo at 10 mg/kg ([1]; 1 h): 24%
- inhibition in vivo at 20 mg/kg ([1]; 1 h): 78%
- inhibition in vivo at 40 mg/kg ([1]; 1 h): 100%
- inhibition in vivo at 10 mg/kg ([1]; 6 h): 44%
- inhibition in vivo at 20 mg/kg ([1]; 6 h): 68%
- inhibition in vivo at 40 mg/kg ([1]; 6 h): 89%
- lethal ([1]; 80 mpK po): 1/4

SMILES: CCC(C)Cn1c(=O)n(C)c(=O)c2[nH]c(C)nc21 (stereo not shown) [Compound 4383, 1,8-dimethyl-3-(2-methyl-1-butyl)xanthine]
- BD (guinea pig), % protection ([1]; 10 mpK po, 30'): 35%
- BD (guinea pig), % protection ([1]; 20 mpK po, 4h): 100%
- BD (guinea pig), % protection ([1]; 20 mpK po, 6h): 97%
- inhibition in vivo at 10 mg/kg ([1]; 1 h): 63%
- LD50 [4]: 60.6 mg/kg
- LD50 ([5]; in vivo, rat, po): 887 mg/kg

SMILES: COC(=O)n1c(C)nc2c1c(=O)n(C)c(=O)n2CC(C)C [Compound 4390, 1,8-dimethyl-3-isobutylxanthine-7-carboxylic acid, methyl ester]
- inhibition in vivo at 10 mg/kg ([1]; 0.5 h): 49%
- inhibition in vivo at 10 mg/kg ([1]; 1 h): 86%
- inhibition in vivo at 10 mg/kg ([1]; 6 h): 79%
- inhibition in vivo at 10 mg/kg ([1]; 10 h): 48%
- lethal ([1]; 20 mpK po): 1/2
- onset and duration of action, in words [1]: effective at lower doses and for longer duration
- cardiopulmonary / bronchodilator activity in the dog, in words [6]: significantly reduce the decrease in pulmonary compliance and increase in pulmonary resistance due to histamine administration
- EC (maximum relaxation) [3]: 1000 µM
- Wheal Diameter, % Δ ([7]; 20 mg/kg po): 60%
- Wheal Diameter, Response (Mean ± S.E.M.) ([7]; 20 mg/kg po): 0.74 ± 0.21 cm
- Wheal Intensity, % Δ ([7]; 20 mg/kg po): 53%
- Wheal Intensity, Response (Mean ± S.E.M.) ([7]; 20 mg/kg po): 1.10 ± 0.23
- antiallergy activity, in words ([7]; rat passive cutaneous anaphylaxis): effective antiallergy agents
- LD50 [4]: 27.6 mg/kg
- LD50 ([5]; guinea pig, po): 25.2 mg/kg
- LD50 ([5]; in vivo, rat, ip): 9.1 mg/kg
- LD50 ([5]; in vivo, rat, po): 33.5 mg/kg
- inhibition in vivo at 2 mg/kg [2, 8]: 60%
- inhibition in vivo at 4 mg/kg [2, 8]: 52%
- inhibition in vivo at 2.5 mg/kg ([2]; Rattus norvegicus, po, 1 h, read-out: AA (rat), % protection): 77%

SMILES: COC(=O)n1c(C)nc2c1c(=O)n(C)c(=O)n2CCC(C)C [Compound 4505, 1,8-dimethyl-3-isopentylxanthine-7-carboxylic acid, methyl ester]
- lethal ([1]; 80 mpK po): 3/5
